In patent US20260266848A1, “COMPOSITIONS AND METHODS FOR DIAGNOSING AND TREATING DYSTONIA” (Duke University, priority 2023, published 2026):

Key:
[1] = test system: DYT1 patient plasma; assay: Whole plasma metabolomics (Biocrates MxP Quant 500 Kit), DYT1 vs Healthy Controls; settings: DYT1-Dystonia vs Healthy Control
Description: Duke Proteomics and Metabolomics Core Facility (DPMCF) also analyzed metabolites from 41 plasma samples using the Biocrates MxP Quant 500 Kit. Plasma from 14 subjects with DYT1 and 27 Healthy Controls was utilized.

[2] = test system: DYT1 patient plasma derived EVs; assay: Plasma-derived EV proteomics (ExoQuick ULTRA, DIA LC/MS/MS), DYT1 vs Healthy Controls; parameters: species or system human; settings: Hs. Plasma EVs (DYT1/WT); significance of genotype difference
Description: Data was obtained for extracellular vesicles using previously acquired samples. The ExoQuick® ULTRA EV Isolation System was used to fractionate and enrich EVs from plasma. Isolated plasma EV samples were then submitted to proteomic analysis by the Duke Proteomics and Metabolomics Core Facility (DPMCF). At the DPMCF, quantitative (LC/MS/MS) was performed on 500 ng of each sample, using an EvoSep One UPLC system coupled to a Thermo Orbitrap Astral high-resolution accurate mass tandem mass spectrometer (Thermo). Briefly, the sample was eluted directly from an Evotip which was subjected to a low organic wash and then subjected to an analytical separation using a 1.7 μm EvoSep 150 um ID×15 cm endurance (EveoSep) column running an SPD30 gradient from approximately 5 to 30% acetonitrile with 0.1% formic acid with a column temperature of 50 C. Data collection on the Orbitrap Astral mass spectrometer was performed in a data-independent acquisition (DIA) mode of acquisition with a r=240,000 (@m/z 200) full MS scan from m/z 380-980 with a target AGC value of 4e5 ions. Fixed DIA, windows of 4 m/z from m/z 380 to 980 DIA MS/MS scans were acquired in the Astral with a target AGC value of 5e4 and a max fill time of 6 ms. HCD collision energy setting of 27% was used for all MS2 scans.

[3] = test system: WT MEF EVs; assay: Quantitative LC-MS/MS proteomics of EVs from ISRIB-treated WT MEF cultures; format: cell-based, mouse; parameters: key to ISRIB and DYT Parallel Direction / ISRIB and DYT Parallel Direction, Ctdsp1 / ISRIB and DYT Parallel Direction, Pcdh19 / ISRIB and DYT Parallel Direction, Tspan7 / ISRIB and DYT Parallel Direction, Myo1e / ISRIB and DYT Parallel Direction, Plpp3 / ISRIB and DYT Parallel Direction, Sh3bp4 / ISRIB and DYT Parallel Direction, Dnajc7 / ISRIB and DYT Parallel Direction, Drg1 / ISRIB and DYT Parallel Direction, Maea: YES = protein abundance effect similar to DYT/WT; settings: EV protein abundance; for WT + ISRIB/WT Cohen's d: ISRIB-treated WT vs WT; for ISRIB and DYT Parallel Direction: WT + ISRIB vs WT, direction compared with DYT/WT
[4] = test system: DYT-TOR1A MEF EVs; assay: Quantitative LC-MS/MS proteomics of EVs from drug-treated DYT-TOR1A MEF cultures (ritonavir, salubrinal); format: cell-based, mouse; parameters: key to RTV Corrective Direction / RTV Corrective Direction, Grwd1 / RTV Corrective Direction, Srrm2 / RTV Corrective Direction, Rbm17 / RTV Corrective Direction, Dcaf8 / RTV Corrective Direction, Edil3 / RTV Corrective Direction, Timp3 / RTV Corrective Direction, Heatr3 / RTV Corrective Direction, Brd4 / RTV Corrective Direction, P3h4 / RTV Corrective Direction, Pacsin3 / RTV Corrective Direction, Naa50 / RTV Corrective Direction, Lpar6 / RTV Corrective Direction, Ndrg1 / RTV Corrective Direction, Kntc1 / RTV Corrective Direction, Cdk11b / RTV Corrective Direction, Sumo1 / RTV Corrective Direction, Lsm4 / RTV Corrective Direction, Hmga2 / RTV Corrective Direction, Cstf1 / RTV Corrective Direction, Tes / RTV Corrective Direction, Sbno1 / RTV Corrective Direction, Unc119b / RTV Corrective Direction, Cfdp1 / RTV Corrective Direction, Sec61b: YES = protein abundance effect opposite to DYT/WT; settings: EV protein abundance; for RTV Corrective Direction: DYT + RTV (ritonavir) vs DYT, direction compared with DYT/WT; for DYT + RTV/DYT Cohen's d: ritonavir (RTV)-treated DYT vs DYT

Compound	-LogP [1]	-LogP [2]	WT + ISRIB/WT Cohen's d [3]	ISRIB and DYT Parallel Direction [3]	RTV Corrective Direction [4]	DYT + RTV/DYT Cohen's d [4]
NCCCCC(=O)O [5-AVA_Aminoacids Related]	2.862					
N[C@@H](CC(=O)O)C(=O)O [Asp_Aminoacids]	1.99					
N[C@@H](CSSC[C@H](N)C(=O)O)C(=O)O [Cystine_Aminoacids Related]	2.546					
CCCCCCCCCCCCCCCCCCCCCCCCCC(=O)OC[C@@H](O)COP(=O)([O-])OCC[N+](C)(C)C [lysoPC a C26:0_Glycerophospholipids]	2.027					
CCCCCCCCCCCCCCCCCCCCCCCCCCCC(=O)OC[C@@H](O)COP(=O)([O-])OCC[N+](C)(C)C [lysoPC a C28:0_Glycerophospholipids]	1.585					
Cc1ccc(OS(=O)(=O)O)cc1 [p-Cresol-SO4_Cresols]	1.433					
CRYAB		1.577				
DLST		1.928				
FLNA		1.743				
Gmppb			−2.41	YES	YES	5.38
Hdgf			1.97	YES	YES	−0.15
Hmcn1			−2.25		YES	−3.58
Huwe1			−3.93	YES	YES	5.04
Idh2			−2.01	YES	YES	23.61
Ilf2			−1.37	YES	YES	2.47
Itpa			−1.25	YES	YES	12.80
Ltbp1			2.17	YES	YES	−3.08
Ltbp2			0.70	YES	YES	−5.72
MAPK3		1.682				
MYH9		1.313				
Myo18a			2.27		YES	4.91
Nes			2.29	YES		0.37
Notch3			0.52	YES	YES	−2.22
Nrbp1			0.18		YES	6.35

Compound	-LogP [1]	-LogP [2]	WT + ISRIB/WT Cohen's d [3]	ISRIB and DYT Parallel Direction [3]	RTV Corrective Direction [4]	DYT + RTV/DYT Cohen's d [4]
Otub1			−2.26	YES	YES	5.84
Oxsr1			−0.72	YES	YES	5.88
PCMT1		1.506				
PI4KA		2.66				
PSMC5		1.615				
PSME4		1.398				
Pgp			−0.86	YES	YES	2.28
Prpf8			−0.01	YES	YES	7.95
Ptprs			0.13	YES	YES	−5.40
RHOA		1.674				
Rab1b			−2.54	YES	YES	1.15
Sar1a			−1.23	YES	YES	4.40
Spp1			2.67	YES	YES	−6.93
Sptan1			−0.40	YES	YES	3.22
Sptbn1			−0.82	YES	YES	3.27
Svep1			−0.50		YES	−0.40
TARDBP		1.352				
TGFB2		2.018				
TLN1		1.51				
TLN2		1.45				
Tardbp			0.28	YES	YES	0.80
Usp7			−1.90	YES	YES	6.89
lgf1r			0.75		YES	0.63
